{
  "source": "patent US5877165A",
  "about": "“Boronated porhyrins and methods for their use” (priority 1997, dated 1999)",
  "key": {"[1]": {"test": "Experiment I: hematological, chemical and enzymatic tests, mice bearing KHJJ tumors (Table 7)", "format": "in vivo, BALB/c mice", "conditions": "3 ip over 8 hr, ZnDPE 118, NiTCP 183 μg/gbw, median (range)", "method": "Lipophilic porphyrins 1, 2, 4, 5, and 6 were injected as emulsions in either 3% or 9% CRM and either 6% or 18% PRG with saline as previously described in Example 2 above. Water soluble porphyrins 3 and 7 were dissolved in saline. BPA was solubilized as a fructose complex.\nFemale BALB/c mice (from Taconic Farms, Germantown, N.Y.) (20-25 g) were implanted with either KHJJ or EMT-6 tumors according to the procedure described in Example 3A above.\nUnder deep halothane anesthesia leading to euthanasia, right ventricular blood was collected in Microtainer (Becton-Dickinson, Rutherford, N.J.) tubes containing EDTA for hematological analyses and boron assays of whole blood and in Microtainer™ tubes containing lithium heparin for chemical analyses and enzyme assays of blood plasma. Tumor, brain, fat, muscle, and liver tissues were sampled at necropsy for boron analyses.\nIn Experiment I, NiTCP (183 μg/gbw) and lipophilic, heme derivative ZnDPE (118 μg/gbw) were compared in mice bearing KHJJ mammary tumors. The porphyrins were given as 3% CRM and 6% PrG emulsions in 3 ip injections given over 8 hrs. Animals were euthanized 15 hr, 39 hr, and 90 hr after the last injection.\nHematological, chemical and enzymatic tests were carried out as described in Example 3 above. Nonparametric statistical analyses were carried out using the Wilcoxon Two-Sample Test in accordance with procedures described in Slatkin, D.N., 1995. Boron analyses were conducted in accordance with the procedure described in Example 3 above. Fat and liver tissues were assayed for ^10 B by prompt-gamma spectroscopy as described in Fairchild, et al., 1986. These measurements were multiplied by 5.0 to give total boron concentrations due to the use of boron of natural isotope abundance in the syntheses of all boronated porphyrins reported."}, "[2]": {"conditions": "total doses up to 272 μg/gbw, n>80 mice (Miura et al., 1996); cited from earlier work"}, "[3]": {"test": "Toxicity testing of NiTCP, MnTCP and CuTCP in normal mice (Example 13, Table 3)", "format": "in vivo, BALB/c mice", "conditions": "4 days after last of 6 ip injections", "method": "Levels of glucose [GLU], blood urea nitrogen [BUN], blood creatinine [BCR], alanine transaminase [ALT], aspartate transaminase [AST], alkaline phosphatase [ALP], total protein [TPR], albumin [ALB], and creatine phosphokinase [CPK] were determined in blood plasma using a Cobas Fara II microanalysis system. Blood platelets [PLT] and white blood cells [WBC] were counted using a Serono-Baker System 9000 automated hematology microanalyzer.\nCompounds prepared as in Example 1B and 1C were formulated with 6% Cremophor EL [CRM] and 12% propylene glycol [PrG] in saline. Total doses of MnTCP and CuTCP of 174 and 223 μg/g body weight, respectively, were administered to normal BALB/c mice. Each mouse was given 6 intraperitoneal [ip] injections over a period of 32 hours. Mice were euthanized 4 days after the last injection and chemical, enzymatic and hematological analyses of their blood were compared to those of similar mice given NiTCP at a dose of 252 μg/g body weight."}, "[4]": {"test": "Overall ranking of boronated porphyrins for BNCT guided by biodistribution and toxicity tests in mice (Table 11)", "method": "The higher the numerical value, the better the performance of that porphyrin for that property. […] Although VCDP was able to deliver therapeutic amounts of boron to tumor, such side effects such as thrombocytopenia, which was induced within 3 hours after injections, weight loss, and the altered hepatic enzymes were serious enough to rank VCDP considerably behind the TCP's and the TCP-H's (Miura et al., 1992). In addition, the 80-hour drug administration period and the 90-hour blood clearance period are of great inconvenience. Moreover, this 4-day difference between the VCDP and the TCP (or TCP-H) dose and clearance schedules would translate into a 4-day greater delay between initiation of drug administration and neutron irradiation which would allow greater tumor growth to occur.\n[…]\n[…]"}},
  "data": [
    {"substance": "Nickel Tetracarboranylphenylporphyrin [NiTCP]", "values": [
      {"measurement": "% Δw", "setting": "[1]; 15 hr", "result": "0.5 (^- 3.2-4.1) %"},
      {"measurement": "ALP", "setting": "[1]; 15 hr", "result": "80 (56-86)"},
      {"measurement": "ALT", "setting": "[1]; 15 hr", "result": "28 (21-32)"},
      {"measurement": "AST", "setting": "[1]; 15 hr", "result": "81 (60-146)"},
      {"measurement": "BCR", "setting": "[1]; 15 hr", "result": "0.5 (0.4-0.5)"},
      {"measurement": "BUN", "setting": "[1]; 15 hr", "result": "32 (27-41)"},
      {"measurement": "CPK", "setting": "[1]; 15 hr", "result": "66 (41-289)"},
      {"measurement": "GLU", "setting": "[1]; 15 hr", "result": "199 (183-262)"},
      {"measurement": "PLT", "setting": "[1]; 15 hr", "result": "733 (579-956)"},
      {"measurement": "% Δw", "setting": "[1]; 39 hr", "result": "3.9 (3.0-9.2) %"},
      {"measurement": "ALP", "setting": "[1]; 39 hr", "result": "71 (57-88)"},
      {"measurement": "ALT", "setting": "[1]; 39 hr", "result": "32 (27-153)"},
      {"measurement": "AST", "setting": "[1]; 39 hr", "result": "108 (76-442)"},
      {"measurement": "BCR", "setting": "[1]; 39 hr", "result": "0.4 (0.3-0.4)"},
      {"measurement": "BUN", "setting": "[1]; 39 hr", "result": "35 (32-43)"},
      {"measurement": "CPK", "setting": "[1]; 39 hr", "result": "167 (91-227)"},
      {"measurement": "GLU", "setting": "[1]; 39 hr", "result": "210 (183-260)"},
      {"measurement": "PLT", "setting": "[1]; 39 hr", "result": "826 (790-927)"},
      {"measurement": "% Δw", "setting": "[1]; 90 hr", "result": "7.8 (5.9-12.1) %"},
      {"measurement": "ALP", "setting": "[1]; 90 hr", "result": "40 (37-80)"},
      {"measurement": "ALT", "setting": "[1]; 90 hr", "result": "27 (26-33)"},
      {"measurement": "AST", "setting": "[1]; 90 hr", "result": "138 (46-285)"},
      {"measurement": "BCR", "setting": "[1]; 90 hr", "result": "0.4 (0.4-0.4)"},
      {"measurement": "BUN", "setting": "[1]; 90 hr", "result": "24 (14-34)"},
      {"measurement": "CPK", "setting": "[1]; 90 hr", "result": "69 (52-94)"},
      {"measurement": "GLU", "setting": "[1]; 90 hr", "result": "218 (172-242)"},
      {"measurement": "PLT", "setting": "[1]; 90 hr", "result": "790 (553-839)"},
      {"measurement": "mortality and toxicity, in words", "setting": "[2]", "result": "no mortality (n>80) nor any substantial toxicity"},
      {"measurement": "toxicity / thrombocytopenia, in words", "setting": "[3]", "result": "nontoxic"},
      {"measurement": "Drug tolerance/deliverable boron (ranking)", "setting": "[4]", "result": 4},
      {"measurement": "Lipophilicity (ranking)", "setting": "[4]", "result": 2},
      {"measurement": "Tumor uptake (normalized) (ranking)", "setting": "[4]", "result": 3},
      {"measurement": "Tumor:Blood (ranking)", "setting": "[4]", "result": 3},
      {"measurement": "toxicity, in words (general)", "setting": "[4]; in vivo, at (potentially) therapeutic doses", "result": "substantially less toxic"}
    ]}
  ]
}
